In ChEMBL document CHEMBL1146432, “Bengamides and Related New Amino Acid Derivatives from the New Caledonian Marine Sponge Jaspis carteri” (J Nat Prod, 1997):
Calls of active or inactive are those of the source. The rule behind the calls is not given here.

System: Candida
Assay: Antifungal activity against Candida at 100 ug/mL
Assay type: functional, organism-based

Compound | Activity
CCCCCCCCCCCCC(=O)O[C@H]1CC[C@H](NC(=O)[C@H](OC)[C@H](O)[C@@H](O)[C@H](O)/C=C/C(C)C)C(=O)NC1 | inactive
CO[C@H]1C(=O)O[C@@H]([C@H](O)/C=C/C(C)C)[C@H]1O | inactive
CCCCCCCCCCCCCC(=O)O[C@H]1CC[C@H](NC(=O)[C@H](OC)[C@H](O)[C@@H](O)[C@H](O)/C=C/C(C)C)C(=O)NC1 | inactive
CCCCCCCCCCCCC(=O)O[C@H]1CC[C@H](NC(=O)[C@H](OC)[C@H](O)[C@@H](O)[C@H](O)/C=C/C(C)C)C(=O)N(C)C1 | inactive
CCCCCCCCCCCCCC(=O)O[C@H]1CC[C@H](NC(=O)[C@H](OC)[C@H](O)[C@@H](O)[C@H](O)/C=C/C(C)C)C(=O)N(C)C1 | inactive
CCCCCCCCCCCCCCC(=O)O[C@H]1CC[C@H](NC(=O)[C@H](OC)[C@H](O)[C@@H](O)[C@H](O)/C=C/C(C)C)C(=O)NC1 | inactive
CCCCCCCCCCCCCCC(=O)O[C@H]1CC[C@H](NC(=O)[C@H](OC)[C@H](O)[C@@H](O)[C@H](O)/C=C/C(C)C)C(=O)N(C)C1 | inactive
CCCCCCCCCCCCCC(=O)O[C@H]1CC[C@H](NC=O)C(=O)N(C)C1 | inactive
